In the assay the target is T1, PPARG-LBD (Homo sapiens, UniProt P37231).
T1 construct: purchased ThermoFisher
T1 sequence (P37231 238-503 limits assumed): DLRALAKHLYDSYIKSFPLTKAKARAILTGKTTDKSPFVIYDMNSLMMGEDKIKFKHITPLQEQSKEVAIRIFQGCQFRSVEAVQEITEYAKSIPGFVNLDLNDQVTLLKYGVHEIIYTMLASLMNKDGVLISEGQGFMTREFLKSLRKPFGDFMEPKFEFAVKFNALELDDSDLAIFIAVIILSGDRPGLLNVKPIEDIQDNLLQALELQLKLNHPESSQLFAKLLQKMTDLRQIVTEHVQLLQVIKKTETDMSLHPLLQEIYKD
The experiment in a line: Biochemical LanthaScreen TR-FRET PPAR gamma corepressor assay (PPARG-LBD / NCOR2 peptide). To be noted: 2 h, read-out: Efficacy. The protocol:
Biochemical Assay for Determining Inverse Agonist Activity of Compounds
A biochemical interaction assay measuring the ligand-dependent changes in interactions between the PPARG-LBD and a fluorescent peptide from the corepressor, NCOR2 (Smrt ID2, ThermoFisher), was performed to evaluate inverse agonist activity.
This assay was performed according to the manufacturers protocol (LanthaScreen TR-FRET PPAR gamma Corepressor Assay, ThermoFisher). […] After incubation the FRET signal was measured using an PHERAstar Plus Plate Reader (BMG). Every sample was tested in duplicate and mean values were used to calculate the EC50 values and efficacies of the compounds. A model of nonlinear regression curve fit was used for calculation.
(In general: In TR-FRET formats the signal depends on donor and acceptor labels being close together.)

Molecules are shown by their SMILES.

The values below come from patent publication US20240109850A1, “Covalent PPARG inverse-agonists” (Bayer Aktiengesellschaft, priority 2022, published 2024).

For `C=CC(=O)Nc1ccc2oc(-c3ccc(CC)cc3)nc2c1` [Example 24, N-[2-(4-Ethylphenyl)-1,3-benzoxazol-5-yl]prop-2-enamide], the Emax is 0%.
